Test results reported in publication PMC11864979, “First-in-class ultralong-target-residence-time p38α inhibitors as a mitosis-targeted therapy for colorectal cancer” (Nature Cancer, 2025).
Values joined by “and” are separate entries in the source; they are usually repeats but may differ in a detail not shown here. Equal values may be shown once.

Key:
340 wild-type kinases [1] = biological target: T1, 340 wild-type kinases (Homo sapiens, UniProt O43318); experiment: selectivity profiling in a panel of 340 wild-type kinases (Reaction Biology Europe); assay type: binding; details: MAP3K7/MAP3K7IP1; 0.2 µM; read-out: residual activity
T1 construct: purchased Reaction Biology Europe
T1 sequence (O43318 1-606): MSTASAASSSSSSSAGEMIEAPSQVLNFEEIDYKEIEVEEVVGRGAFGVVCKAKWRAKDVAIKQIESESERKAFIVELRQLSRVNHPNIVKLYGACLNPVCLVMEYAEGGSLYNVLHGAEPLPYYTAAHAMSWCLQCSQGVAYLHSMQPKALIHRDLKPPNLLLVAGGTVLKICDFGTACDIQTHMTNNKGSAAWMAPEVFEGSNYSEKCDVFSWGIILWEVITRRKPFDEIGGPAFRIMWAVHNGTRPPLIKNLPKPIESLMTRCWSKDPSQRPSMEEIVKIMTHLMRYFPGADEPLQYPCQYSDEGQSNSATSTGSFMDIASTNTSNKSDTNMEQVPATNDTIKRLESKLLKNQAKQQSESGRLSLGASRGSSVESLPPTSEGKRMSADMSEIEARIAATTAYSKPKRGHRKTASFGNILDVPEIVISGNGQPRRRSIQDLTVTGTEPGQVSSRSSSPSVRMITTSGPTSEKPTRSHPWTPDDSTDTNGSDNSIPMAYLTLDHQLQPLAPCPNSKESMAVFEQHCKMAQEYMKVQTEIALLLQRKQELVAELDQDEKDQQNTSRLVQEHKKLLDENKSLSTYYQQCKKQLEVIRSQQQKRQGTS
Text: (§1) Potential interactions between 2015 and 340 wild-type kinases were checked by means of a competition binding assay performed by Reaction Biology Europe (Supplementary Table 15).

340 wild-type kinases [2] = biological target: T2, 340 wild-type kinases (Homo sapiens, UniProt P36896); experiment: as above; assay type: binding; details: 1 µM 2015; read-out: ACVR1B residual activity
T2 construct: purchased Reaction Biology Europe
T2 sequence (P36896 24-505): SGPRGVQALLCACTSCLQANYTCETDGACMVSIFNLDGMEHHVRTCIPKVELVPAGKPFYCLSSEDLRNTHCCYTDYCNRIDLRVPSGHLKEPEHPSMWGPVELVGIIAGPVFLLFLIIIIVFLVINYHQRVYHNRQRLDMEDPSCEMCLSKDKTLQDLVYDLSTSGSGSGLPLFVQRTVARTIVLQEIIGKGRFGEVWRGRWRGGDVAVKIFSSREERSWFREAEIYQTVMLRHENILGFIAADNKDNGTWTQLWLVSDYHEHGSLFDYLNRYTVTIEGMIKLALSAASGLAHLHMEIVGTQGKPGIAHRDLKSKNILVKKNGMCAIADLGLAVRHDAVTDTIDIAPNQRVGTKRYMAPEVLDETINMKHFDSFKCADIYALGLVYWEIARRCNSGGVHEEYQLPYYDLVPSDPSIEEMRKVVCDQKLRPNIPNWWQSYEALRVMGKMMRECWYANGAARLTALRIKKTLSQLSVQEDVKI
Text: as §1

[3] = system: KAP-shMapk14 and KAP-shNC organoids; experiment: cell viability in KAP-shMapk14 and KAP-shNC organoids treated with doxycycline and 2015; assay type: cell-based, mouse; set-up: Cell viability (%): concentration or dose not given beside the values; details: for Cell viability (%): individual replicates, relative to shNC + DMSO
Method: To produce retroviral particles, Phoenix packaging cells were transfected with retroviral DNA (pRT3GEPIR and pR-BRAF^V600E-Puro) through calcium phosphate transfection. The viral supernatant, supplemented with polybrene (5 µg ml^−1) was applied on cells or dissociated organoids and the infected cultures were selected with puromycin (3 µg ml^−1). Expression of shRNAs and GFP was induced with 5 µg ml^−1 doxycycline (Sigma).
For in vitro treatment studies, organoids were mechanically dissociated and digested using TrypLE supplemented with 100 µg ml^−1 DNaseI and 10.5 µM Y-27632 dihydrochloride (Invitrogen) at 37 °C. A total of 1,000–2,000 single cells were plated per well in white 96-well plates (Greiner) in culture medium containing 10% GFR Matrigel or Cultrex BME. The treatment with doxycycline (5 µg ml^−1), pharmacological inhibitors or corresponding volumes of DMSO was started 24 h after plating. Doxycycline was obtained from Sigma-Aldrich. […] Cell viability was measured by means of CellTiter-Glo 3D or CellTiter-Glo 2.0 reagent (Promega) according to the manufacturers’ instructions and the Infinite M Plex reader (Tecan, i-control version 3.9.1 software). Results were normalized to vehicle (DMSO) or to shNC. For cell-doubling assays, the cell number was quantified at the corresponding time points using Guava EasyCyte flow cytometer (Luminex, CytoSoft v5.2 software).

[4] = system: KAP liver metastasis in Rag2^−/− mice; experiment: survival of Rag2^−/− mice with KAP liver metastasis; assay type: in vivo, mouse
Method: Subcutaneous injection, splenic seeding or cecum injection of organoids was performed in 8–10-week-old C57BL/6 N/Crl, Rag2^−/− (B6.Cg-Rag2^tm1.1Cgn/J), or CB17 Scid beige (CB17.Cg-Prkdc^scidLyst^bg-J/Crl) mice, obtained from Charles River. The organoids were dissociated into single cells, washed with PBS and injected in a 1:1 mixture of PBS and Matrigel. For murine organoids, 1 × 10^5 cells were injected into the left and right flanks or the spleen capsule and 2 × 10^6 cells were injected into the cecum wall. For human organoids, 4 × 10^5 cells were injected into the flanks of CB17 Scid beige mice. For splenic seeding and cecum injection, mice were anaesthetized using ketamine (100 mg kg^−1, intraperitoneally) and xylazin (10 mg/kg, intraperitoneally) in NaCl and a small laparotomy below the thorax was performed.

[5] = weight development of treated mice; assay type: in vivo, mouse
Method: No mice were excluded during treatment studies. […] GFP imaging of tumors was performed using a Hamamatsu imaging system. For quantification of compounds in the murine plasma, 20 μl of tail-vein blood was diluted with 80 μl of heparin solution, before 200 μl of ice-cold acetonitrile with a defined internal standard was added. The samples were sonicated and centrifuged and the supernatant was subjected to liquid chromatography-mass spectrometry quantification. Full blood analyses were performed with the Sysmex KX-21N hematology analyzer.

CNC(=O)c1ccc2c(c1)C(=O)c1ccc(Nc3ccc(F)c(NC(=O)C4CC4)c3)cc1CC2 [Compound 2015]
remaining activity at 0.2 µM (340 wild-type kinases [1]): 96.8% | remaining activity at 1 µM (340 wild-type kinases [2]): 86.1% | response of KAP-shMapk14.2605 organoids (in words) ([3]; doxycycline-induced Mapk14-shRNA expression): did not respond | Cell viability (%) ([3]; shMapk14.2605 + 2015): 22.20% and 48.13% and 45.94% | Cell viability (%) ([3]; shNC + 2015): 31.98% and 25.43% and 20.36% | treatment response in Rag2^−/− mice (in words) ([4]; KAP liver metastasis): strong treatment response | Survival ([4]; single animals, 1 = event, Fig. 6i): 40 d of treatment and 34 d of treatment and 32 d of treatment and 39 d of treatment and 38 d of treatment and 25 d of treatment | Weight development (%) ([5]; day 12): 100.0% and 97.9% and 100.9% and 99.3% and 97.1% | Weight development (%) ([5]; day 14): 100.9% and 97.9% and 97.4% and 99.6% and 101.1% and 98.2% and 100.0% | Weight development (%) ([5]; day 16): 102.6% and 98.7% and 97.0% and 100.9% and 101.1% and 99.3% | Weight development (%) ([5]; day 18): 103.8% and 98.7% and 97.4% and 101.3% and 100.7% and 100.0% and 101.8% | Weight development (%) ([5]; day 20): 102.6% and 98.7% and 97.9% and 101.3% and 100.4% and 100.0% | Weight development (%) ([5]; day 22): 106.4% and 100.4% and 98.7% and 100.0% and 103.3% and 101.1% and 101.4% | Weight development (%) ([5]; day 24): 105.1% and 103.0% and 100.0% and 101.8% and 100.4% and 101.1% | Weight development (%) ([5]; day 26): 106.4% and 100.8% and 101.7% and 102.2% and 101.5% and 100.4% and 101.1% | Weight development (%) ([5]; day 28): 106.8% and 103.4% and 100.9% and 101.3% and 103.7% and 100.7% and 101.1% | Weight development (%) ([5]; day 30): 110.3% and 105.1% and 101.7% and 105.3% and 101.5% and 100.7% and 101.1% | Weight development (%) ([5]; day 32): 106.0% and 105.5% and 102.6% and 102.2% and 102.9% and 101.4% | Weight development (%) ([5]; day 34): 106.8% and 104.7% and 100.9% and 103.5% and 106.2% and 101.1% and 100.4% | Weight development (%) ([5]; day 36): 108.1% and 103.8% and 103.9% and 105.7% and 107.0% and 99.6% and 100.0% | Weight development (%) ([5]; day 38): 109.8% and 107.2% and 103.0% and 106.1% and 109.9% and 100.7% and 101.4% | Weight development (%) ([5]; day 40): 110.3% and 103.4% and 103.0% and 106.6% and 100.7% and 99.3% | Weight development (%) ([5]; day 42): 109.4% and 106.4% | body weight over time (in words) ([5]; mouse, in vivo): did not lose body weight
